Several values for one entry are separate records, joined by “and”; a condition that tells them apart may be missing. Equal values may be shown once.
How the values were obtained:
[1] = molecular target: T1, human HDL scavenger receptor class B type I (SR-BI) (Homo sapiens, UniProt Q8WTV0); assay: SR-B1 cellular oxLDL uptake counter screen (CHO-Trex-hSR-B1); type: cell-based
T1 construct: expressed in transfected cells; host or cells: CHO T-REx (CHO-Trex-hSR-B1 cell line)
T1 sequence (Q8WTV0 1-509 isoform Q8WTV0-2): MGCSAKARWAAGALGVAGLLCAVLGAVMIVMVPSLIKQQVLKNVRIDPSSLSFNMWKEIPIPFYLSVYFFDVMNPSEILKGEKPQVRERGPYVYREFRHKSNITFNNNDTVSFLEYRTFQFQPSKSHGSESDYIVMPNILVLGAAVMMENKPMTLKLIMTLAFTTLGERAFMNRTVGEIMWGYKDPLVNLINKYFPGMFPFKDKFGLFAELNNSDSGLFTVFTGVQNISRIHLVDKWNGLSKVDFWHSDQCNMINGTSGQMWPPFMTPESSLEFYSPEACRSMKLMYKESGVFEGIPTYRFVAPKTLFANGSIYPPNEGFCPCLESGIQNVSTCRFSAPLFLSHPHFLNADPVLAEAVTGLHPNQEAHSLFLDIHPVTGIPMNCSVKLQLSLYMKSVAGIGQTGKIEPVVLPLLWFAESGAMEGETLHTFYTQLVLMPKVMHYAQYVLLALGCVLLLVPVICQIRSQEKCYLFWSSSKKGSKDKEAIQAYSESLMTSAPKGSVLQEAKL
Source text: To identify small molecule inhibitors of LOX-1 mediated oxLDL uptake we developed a cellular high throughput screening (HTS) assay. Small molecule compounds were screened for their ability to block the uptake of AlexaFluor594 (AF594)-labeled human oxLDL into a CHO-K1 cell line with inducible expression of the human LOX-1 receptor. This readout was visualized and images were quantified by fluorescence microscopy (Fig. 1a). As positive controls, cells without induction of LOX-1 as well as a blocking anti-LOX-1 antibody[29] was used (Fig. 1b). More than one million different compounds were screened. Lead-like compounds (molecular weight above 270 Da) were tested at a concentration of 5 µg/ml, whereas a fragment subset (molecular weight below 270 Da) was tested at a tenfold higher concentration to ensure detection of more weakly active but ligand-efficient fragment-like compounds. Employing a hit criterion of lower than 50% of control, a hit rate of 2.8% was observed (Supplementary Fig. 1). These hits were further confirmed by performing two independent assay runs with fresh compound samples, resulting in a confirmation rate of 80% and a confirmed hit rate of 2.2% (Supplementary Fig. 2). To filter out unspecific or false-positive hits, a counter screen was developed and applied for testing the primary hits[30]–[32]. […]

[2] = molecular target: T2, hERG channel (Homo sapiens, UniProt Q12809); assay: hERG patch-clamp in HEK293 cells; type: cell-based
T2 construct: expressed in transfected cells; host or cells: HEK293
Description: hERG-mediated membrane currents are recorded in HEK (human embryonic kidney) 293 cells stably transfected with hERG cDNA, using the whole-cell configuration of the patch-clamp technique as previously described. The number of experiments for BI-0115 is n = 1.

T2 sequence (Q12809 whole entry): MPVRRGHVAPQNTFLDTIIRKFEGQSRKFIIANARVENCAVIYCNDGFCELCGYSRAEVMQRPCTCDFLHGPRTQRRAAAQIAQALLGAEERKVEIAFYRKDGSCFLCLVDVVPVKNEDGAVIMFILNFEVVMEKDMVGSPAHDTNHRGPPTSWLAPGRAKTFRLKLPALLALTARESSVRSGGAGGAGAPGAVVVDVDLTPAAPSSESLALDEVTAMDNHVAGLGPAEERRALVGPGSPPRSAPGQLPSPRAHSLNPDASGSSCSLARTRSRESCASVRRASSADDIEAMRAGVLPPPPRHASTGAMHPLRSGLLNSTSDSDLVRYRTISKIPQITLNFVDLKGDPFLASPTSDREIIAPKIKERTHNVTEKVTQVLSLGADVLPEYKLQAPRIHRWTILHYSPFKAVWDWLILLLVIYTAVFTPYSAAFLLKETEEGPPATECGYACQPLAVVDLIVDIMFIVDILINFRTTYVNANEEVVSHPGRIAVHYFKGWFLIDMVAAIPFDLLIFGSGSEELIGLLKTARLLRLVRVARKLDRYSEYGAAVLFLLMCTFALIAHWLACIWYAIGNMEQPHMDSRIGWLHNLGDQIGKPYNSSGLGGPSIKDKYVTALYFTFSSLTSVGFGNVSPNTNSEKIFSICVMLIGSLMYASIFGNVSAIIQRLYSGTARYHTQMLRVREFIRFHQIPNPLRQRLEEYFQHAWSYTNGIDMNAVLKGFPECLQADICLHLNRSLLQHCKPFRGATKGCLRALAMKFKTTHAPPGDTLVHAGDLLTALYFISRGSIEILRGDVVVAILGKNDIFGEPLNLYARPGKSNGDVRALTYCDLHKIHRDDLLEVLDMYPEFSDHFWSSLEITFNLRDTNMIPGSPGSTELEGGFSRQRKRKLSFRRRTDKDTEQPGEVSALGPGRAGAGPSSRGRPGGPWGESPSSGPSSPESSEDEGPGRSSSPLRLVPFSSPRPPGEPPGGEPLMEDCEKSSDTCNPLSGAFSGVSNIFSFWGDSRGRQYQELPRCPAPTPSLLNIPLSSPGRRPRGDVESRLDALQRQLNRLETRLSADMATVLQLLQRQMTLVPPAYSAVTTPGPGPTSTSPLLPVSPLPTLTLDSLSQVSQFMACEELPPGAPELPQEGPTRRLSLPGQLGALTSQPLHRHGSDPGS

SMILES: CCCN1C(=O)c2ccc(Cl)cc2Nc2ncccc21 [BI-0115]
- IC50 ([1]; eight independent measurements 1-8, Supplementary Table 2, read-out: IC50 on SR-B1, individual measurements): 88.8 µM and > 54.2 µM and > 100 µM (4×) and > 172 µM (2×)
- activity in the SR-B1 assay ([1]; in words): no activity
- inhibition of the hERG channel ([2]; in words): no inhibition
- IC50 ([2]; whole-cell patch-clamp, n = 1): > 10 µM

From paper PMC9814544 (Communications Chemistry, 2020)
